Data from patent US6492338B1, “Therapeutic agents” (Takara Shuzo Co., Ltd., priority 1998, dated 2002).

How the values were obtained:
Aldose reductase (AR) = target: T1, Aldose reductase (AR) (Homo sapiens, UniProt P15121); assay: AR (aldose reductase) inhibitory activity, NADPH/methylglyoxal, absorbance at 340 nm; type: biochemical
T1 construct: purchased Wako Pure Chemical Industries 012-13991
Description: 2,5-dihydroxytetrahydro-2-furancarboxylic acid was added to an AR reaction system to determine the AR inhibitory activity.
NADPH (Nacalai Tesque) as a hydrogen donor and methylglyoxal (Nacalai Tesque) as a substrate for the enzyme were used. A commercially available enzyme solution (Wako Pure Chemical Industries, code 012-13991) was diluted. for use as AR.
The AR activity was measured as follows.
40 μl of sterile pure water, 20 μl of 1 mM aqueous NADPH solution and 10 μl of enzyme dilution were added to 100 μl of 200 mM phosphate buffer (pH 6.2). 10 μl of sterile pure water was further added to the mixture. After 20 μl of 100 mM aqueous methylglyoxal solution was added thereto, the change in absorbance at 340 nm was monitored at room temperature for 3 minutes. The enzymatic activity was determined on the basis of the change in absorbance per minute. Next, aqueous solution of 2,5-dihydroxytetrahydro-2-furancarboxylic acid at a varying concentration was added to the reaction system as described above in place of 10 μl of sterile pure water. The enzymatic activity was then determined as described above.
The AR inhibitory activity of 2,5-dihydroxytetrahydro-2-furancarboxylic acid was determined based on the enzymatic activity inhibition rate calculated according to the following equation:
Enzymatic activity inhibition rate (%)={1-(enzymatic activity with the addition of aqueous 2,5-dihydroxytetrahydro-2-furancarboxylic acid solution)/(enzymatic activity with the addition of water)}×100.

[1] = test system: alcohol dehydrogenase (ADH); assay: ADH inhibitory activity, NAD/ethanol, absorbance at 340 nm; type: biochemical; details: final concentration 10.8 μg/ml (IC50 for AR activity)
Description: Next, 2,5-dihydroxytetrahydro-2-furancarboxylic acid was added to an ADH reaction system to determine the ADH inhibitory activity.
A commercially available lyophilized product (Nacalai Tesque, code 012-83) was dissolved in water for use as ADH. NAD (Nacalai Tesque) as a hydrogen donor and ethanol (Nacalai Tesque) as a substrate for the enzyme were used.
The ADH activity was measured as follows.
50 μl of water, 20 μl of 3 mM aqueous NAD solution and 10 μl of enzyme solution were added to 100 μl of 200 mM phosphate buffer (pH 6.2). 10 μl of sterile pure water was further added to the mixture. After 10 μl of 60% ethanol was added thereto, the change in absorbance at 340 nm was monitored at room temperature for 3 minutes. The enzymatic activity was determined on the basis of the change in absorbance per minute.
Next, aqueous solution of 2,5-dihydroxytetrahydro-2-furancarboxylic acid at a final concentration of 10.8 μg/ml and sterile pure water were added to the reaction system as described above in place of 10 μl of sterile pure water. The enzymatic activity was then determined as described above. The ADH enzymatic activity inhibition rate was calculated according to the above-mentioned equation based on the enzymatic activity.

O=C(O)C1(O)CCC(O)O1 (stereo not drawn) [2,5-dihydroxytetrahydro-2-furancarboxylic acid]
IC50 (Aldose reductase (AR); calculated from concentration and AR activity inhibition rate of Table 1, read-out: concentration in the enzymatic reaction mixture that results in the activity inhibition rate of 50% (IC50), AR (converted)): ~72.9 µM | Activity inhibition rate (AR) (Aldose reductase (AR); concentration in enzymatic reaction system 0.5 μg/ml): 8.1% | Activity inhibition rate (AR) (Aldose reductase (AR); concentration in enzymatic reaction system 5 μg/ml): 34.8% | Activity inhibition rate (AR) (Aldose reductase (AR); concentration in enzymatic reaction system 50 μg/ml): 81.6% | Activity inhibition rate (AR) (Aldose reductase (AR); concentration in enzymatic reaction system 500 μg/ml): 96.3% | ADH activity inhibition rate [1]: 7.1%
